Test results taken from US20260053834A1, “COVALENT MODIFIERS OF AKT1 AND USES THEREOF” (Terremoto Biosciences, Inc., priority 2023, published 2026).

Key:
AKT1 WT = biological target: T1, AKT1 WT (Homo sapiens, UniProt P31749); assay: Live cell target engagement by NanoBRET competitive probe displacement, AKT1 WT; assay type: binding; settings: transfected HEK293 cells, 2 h at 37° C., read-out: AKT1 WT IC50: GeoMean IC50
T1 construct: expressed in transfected cells; host or cells: HEK293
Experimental: (§1) Determining live cell AKT1 E17K, AKT1 WT, and AKT2 target engagement by NanoBRET competitive probe displacement. Live cell target engagement assays were performed as described (Vasta, J. D. et al. Cell Chem Biol 2018, 25(11), 206-214). Briefly, HEK293 cells were transfected with plasmids encoding kinase-NanoLuciferase fusion proteins overnight. Cells were then treated with serial dilutions of compound and an ˜EC50 concentration of fluorescently-tagged ATP-competitive tracer (Promega). After incubation for 2 h at 37° C., luciferase substrate and extracellular luciferase inhibitor were added to all wells, and luminescent intensity at 460 nm and 600 nm were measured on a multimode plate-reader. The ratio of E600/E460 was calculated to give the tracer engagement signal (BRET). IC50 values were calculated by fitting BRET values to a log(inhibitor) vs. response Hill equation.

AKT2 = biological target: T2, AKT2 (Homo sapiens, UniProt P31751); assay: Live cell target engagement by NanoBRET competitive probe displacement, AKT2; assay type: binding; settings: transfected HEK293 cells, 2 h at 37° C., read-out: AKT2 IC50: GeoMean IC50
T2 construct: expressed in transfected cells; host or cells: HEK293
Experimental: as §1

[1] = test system: LAPC4 prostate cancer cells, which express the AKT1 E17K allele; assay: Antiproliferative effects in LAPC4 cells (CellTiter Glo, 72 h); assay type: cell-based; settings: Homo sapiens, LAPC4, 72 h, read-out: LAPC4 proliferation IC50: GeoMean IC50
Experimental: Antiproliferative effects in LAPC4 cells. LAPC4 prostate cancer cells (Klein, K. A. et al. Nat Med 1997, 3, 402-408), which express the AKT1 E17K allele, were grown in IMDM media (Hyclone) supplemented with 12% FBS+1% P/S. To assess compound effects on growth, 1,000 cells/well were seeded in 384 well assay plates, incubated with compound dilutions dissolved in DMSO. After 72 h, intracellular ATP content was assessed with CellTiter Glo reagent (Promega) according to the manufacturer's instructions. IC50 values were calculated by fitting luminescence values to a log(inhibitor) vs. response Hill equation.

AKT1 E17K = biological target: T3, AKT1 E17K (Homo sapiens, UniProt P31749, E17K); assay: Live cell target engagement by NanoBRET competitive probe displacement, AKT1 E17K; assay type: binding; settings: transfected HEK293 cells, 2 h at 37° C., read-out: AKT1 E17K IC50: GeoMean IC50
T3 construct: expressed in transfected cells; host or cells: HEK293
Experimental: as §1

T3 sequence (P31749 whole entry E17K): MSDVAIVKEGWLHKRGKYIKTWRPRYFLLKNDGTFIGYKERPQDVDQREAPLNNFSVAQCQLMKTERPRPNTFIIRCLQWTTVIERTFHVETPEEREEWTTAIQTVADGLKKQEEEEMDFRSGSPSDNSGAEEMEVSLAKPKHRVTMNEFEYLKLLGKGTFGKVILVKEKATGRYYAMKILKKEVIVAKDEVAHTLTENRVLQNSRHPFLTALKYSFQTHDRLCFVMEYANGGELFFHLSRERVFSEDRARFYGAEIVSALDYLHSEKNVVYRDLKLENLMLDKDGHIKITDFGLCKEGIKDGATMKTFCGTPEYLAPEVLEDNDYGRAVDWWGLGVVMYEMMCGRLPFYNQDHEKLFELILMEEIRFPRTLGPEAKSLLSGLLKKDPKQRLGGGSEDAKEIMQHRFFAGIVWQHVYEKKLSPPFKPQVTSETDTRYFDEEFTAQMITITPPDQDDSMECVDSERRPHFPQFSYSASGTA
T2 sequence (P31751 whole entry): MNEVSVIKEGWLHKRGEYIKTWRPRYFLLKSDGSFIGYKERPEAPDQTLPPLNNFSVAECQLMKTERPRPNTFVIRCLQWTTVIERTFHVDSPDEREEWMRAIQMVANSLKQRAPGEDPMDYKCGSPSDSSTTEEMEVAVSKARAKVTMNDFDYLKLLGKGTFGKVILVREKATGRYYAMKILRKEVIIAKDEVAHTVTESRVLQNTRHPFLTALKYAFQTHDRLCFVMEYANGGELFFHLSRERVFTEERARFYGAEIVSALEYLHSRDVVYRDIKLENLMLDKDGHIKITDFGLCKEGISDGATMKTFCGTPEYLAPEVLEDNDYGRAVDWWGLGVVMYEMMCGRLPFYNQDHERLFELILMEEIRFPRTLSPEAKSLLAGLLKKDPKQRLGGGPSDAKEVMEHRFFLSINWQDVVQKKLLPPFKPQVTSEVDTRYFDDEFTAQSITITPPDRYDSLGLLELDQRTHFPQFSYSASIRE
T1 sequence (P31749 whole entry): as the sequence (P31749 whole entry E17K) above, with K17E counted along it

SMILES | IC50 (AKT1 WT) [nM] | IC50 (AKT2) [nM] | IC50 [1] [nM] | IC50 (AKT1 E17K) [nM]
COc1cc(O)c(C=O)cc1C(=O)N[C@H]1CCc2cc(-n3c(-c4cccnc4N)nc4ccc(-c5ccccc5)nc43)ccc21 [Example 17, N-[(1S)-5-[2-(2-aminopyridin-3-yl)-5-phenylimidazo[4,5-b]pyridin-3-yl]-2,3-dihydro-1H-inden-1-yl]-5-formyl-4-hydroxy-2-methoxybenzamide] | 100 to 2000 | 100 to 2000 | 100 to 2000 | 100 to 2000
Nc1ncccc1-c1nc2ccc(-c3ccn(C4COC4)n3)nc2n1-c1ccc2c(c1)CC[C@@H]2NC(=O)c1ccc(O)c(C=O)c1 [Example 171, N-[(1S)-5-[2-(2-aminopyridin-3-yl)-5-[1-(oxetan-3-yl)pyrazol-3-yl]imidazo[4,5-b]pyridin-3-yl]-2,3-dihydro-1H-inden-1-yl]-3-formyl-4-hydroxybenzamide] | 10 to 100 | 100 to 2000 | 100 to 2000 | 10 to 100
Nc1ncccc1-c1nc2ccc(-c3ccccc3)nc2n1-c1ccc2c(c1)CC[C@@H]2NC(=O)c1cc(C=O)c2[nH]nnc2c1 [Example 137, N-[(1S)-5-[2-(2-aminopyridin-3-yl)-5-phenylimidazo[4,5-b]pyridin-3-yl]-2,3-dihydro-1H-inden-1-yl]-7-formyl-1H-1,2,3-benzotriazole-5-carboxamide] | < 10 | < 10 | 10 to 100 | < 10
Nc1ncccc1-c1nc2ccc(-n3ccc(Cl)n3)nc2n1-c1ccc2c(c1)CC[C@@H]2NC(=O)c1ccc(O)c(C=O)c1 [Example 96, (S)—N-(5-(2-(2-aminopyridin-3-yl)-5-(3-chloro-1H-pyrazol-1-yl)-3H-imidazo[4,5-b]pyridin-3-yl)-2,3-dihydro-1H-inden-1-yl)-3-formyl-4-hydroxybenzamide] | 100 to 2000 | 100 to 2000 | 100 to 2000 | 10 to 100
C#Cc1cc(C(=O)N[C@H]2CCc3cc(-n4c(-c5cccnc5N)nc5ccc(-n6cccn6)nc54)ccc32)cc(C=O)c1O [Example 101, N-[(1S)-5-[2-(2-aminopyridin-3-yl)-5-(pyrazol-1-yl)imidazo[4,5-b]pyridin-3-yl]-2,3-dihydro-1H-inden-1-yl]-3-ethynyl-5-formyl-4-hydroxybenzamide] | 10 to 100 | 100 to 2000 | 100 to 2000 | 10 to 100
Nc1ncccc1-c1nc2ccc(-c3ccccc3)nc2n1-c1ccc2c(c1)CC[C@H]2NC(=O)c1ccc(O)c(C=O)c1 [Example 7, N-[(1R)-5-[2-(2-aminopyridin-3-yl)-5-phenylimidazo[4,5-b]pyridin-3-yl]-2,3-dihydro-1H-inden-1-yl]-3-formyl-4-hydroxybenzamide] | ≥ 2000 | ≥ 2000 |  | 100 to 2000
Nc1ncccc1-c1nc2ccc(-c3ccccc3)nc2n1-c1ccc2c(c1)CCC2NC(=O)Cc1ccc(C=O)c(O)c1 (stereo not shown) [Example 6, N-(5-(2-(2-aminopyridin-3-yl)-5-phenyl-3H-imidazo[4,5-b]pyridin-3-yl)-2,3-dihydro-1H-inden-1-yl)-2-(4-formyl-3-hydroxyphenyl)acetamide] | 10 to 100 | 100 to 2000 |  | 10 to 100
Nc1ncccc1-c1nc2ccc(-c3ccccc3)nc2n1-c1ccc2c(c1)CC[C@H]2NCCc1ccc(C=O)c(O)c1 [Example 3, 4-(2-{[(1R)-5-[2-(2-aminopyridin-3-yl)-5-phenylimidazo[4,5-b]pyridin-3-yl]-2,3-dihydro-1H-inden-1-yl]amino}ethyl)-2-hydroxybenzaldehyde] | 100 to 2000 | ≥ 2000 |  | 10 to 100
Nc1ncccc1-c1nc2ccc(-c3ccccc3)nc2n1-c1ccc2c(c1)CC[C@@H]2NC(=O)Cc1ccc(C=O)c(O)c1Cl [Example 9, N-[(1S)-5-[2-(2-aminopyridin-3-yl)-5-phenylimidazo[4,5-b]pyridin-3-yl]-2,3-dihydro-1H-inden-1-yl]-2-(2-chloro-4-formyl-3-hydroxyphenyl)acetamide] | 10 to 100 | 100 to 2000 |  | 10 to 100
Nc1ncccc1-c1nc2ccc(-c3ccccc3)nc2n1-c1ccc2c(c1)CCC2NCCc1ccc(C=O)c(O)c1 (stereo not shown) [Example 1, 4-(2-((5-(2-(2-aminopyridin-3-yl)-5-phenyl-3H-imidazo[4,5-b]pyridin-3-yl)-2,3-dihydro-1H-inden-1-yl)amino)ethyl)-2-hydroxybenzaldehyde] | 100 to 2000 | 100 to 2000 |  | 10 to 100
Nc1ncccc1-c1nc2ccc(-c3ccccc3)nc2n1-c1ccc2c(c1)CC[C@@H]2NCCc1ccc(C=O)c(O)c1 [Example 4, 4-(2-{[(1S)-5-[2-(2-aminopyridin-3-yl)-5-phenylimidazo[4,5-b]pyridin-3-yl]-2,3-dihydro-1H-inden-1-yl]amino}ethyl)-2-hydroxybenzaldehyde] | 100 to 2000 | 100 to 2000 |  | 10 to 100
Nc1ncccc1-c1nc2ccc(-c3ccccc3)nc2n1-c1ccc2c(c1)CCC2NCCc1ccc(O)c(C=O)c1 (stereo not shown) [Example 2, 5-(2-((5-(2-(2-aminopyridin-3-yl)-5-phenyl-3H-imidazo[4,5-b]pyridin-3-yl)-2,3-dihydro-1H-inden-1-yl)amino)ethyl)-2-hydroxybenzaldehyde] | ≥ 2000 | ≥ 2000 |  | 100 to 2000

More lines, now with the values ahead:

IC50 (AKT1 WT) [nM] | IC50 (AKT2) [nM] | IC50 [1] [nM] | IC50 (AKT1 E17K) [nM] | SMILES
100 to 2000 | ≥ 2000 | ≥ 2000 | 100 to 2000 | CN(C)Cc1cc(C(=O)N[C@H]2CCc3cc(-n4c(-c5cccnc5N)nc5ccc(-n6cccn6)nc54)ccc32)cc(C=O)c1O [Example 192, N-[(1S)-5-[2-(2-aminopyridin-3-yl)-5-(pyrazol-1-yl)imidazo[4,5-b]pyridin-3-yl]-2,3-dihydro-1H-inden-1-yl]-3-[(dimethylamino)methyl]-5-formyl-4-hydroxybenzamide]
10 to 100 | 100 to 2000 | 10 to 100 | < 10 | Nc1ncccc1-c1nc2ccc(-n3ncc4c3COC4)nc2n1-c1ccc2c(c1)CC[C@@H]2NC(=O)c1ccc(O)c(C=O)c1 [Example 206, N-[(1S)-5-[2-(2-aminopyridin-3-yl)-5-{4H,6H-furo[3,4-c]pyrazol-1-yl}imidazo[4,5-b]pyridin-3-yl]-2,3-dihydro-1H-inden-1-yl]-3-formyl-4-hydroxybenzamide]
 |  | 100 to 2000 |  | CS(=O)(=O)Nc1cc2ncn([C@H]3CCc4cc(-n5c(-c6cccnc6N)nc6ccc(-n7cccn7)nc65)ccc43)c(=O)c2cc1C=O [Example 244, N-{3-[(1S)-5-[2-(2-aminopyridin-3-yl)-5-(pyrazol-1-yl)imidazo[4,5-b]pyridin-3-yl]-2,3-dihydro-1H-inden-1-yl]-6-formyl-4-oxoquinazolin-7-yl}methanesulfonamide]
 |  | ≥ 2000 |  | Cc1nc2cc(O)c(C=O)cc2c(=O)n1[C@H]1CCc2cc(-n3c(-c4cccnc4N)nc4ccc(-n5cccn5)nc43)ccc21 [Example 249, 3-[(1S)-5-[2-(2-aminopyridin-3-yl)-5-(pyrazol-1-yl)imidazo[4,5-b]pyridin-3-yl]-2,3-dihydro-1H-inden-1-yl]-7-hydroxy-2-methyl-4-oxoquinazoline-6-carbaldehyde]
100 to 2000 | 100 to 2000 |  | 10 to 100 | Nc1ncccc1-c1nc2ccc(-n3cccn3)nc2n1-c1ccc2c(c1)CC(O)C2NC(=O)c1ccc(O)c(C=O)c1 (stereo not shown) [Example 251, N-(5-(2-(2-aminopyridin-3-yl)-5-(1H-pyrazol-1-yl)-3H-imidazo[4,5-b]pyridin-3-yl)-2-hydroxy-2,3-dihydro-1H-inden-1-yl)-3-formyl-4-hydroxybenzamide]
10 to 100 | 100 to 2000 |  | 10 to 100 | Nc1ncccc1-c1nc2ccc(-n3cccn3)nc2n1-c1ccc2c(c1)CC[C@@H]2NC(=O)c1cc(C=O)c(F)cc1F [Example 188, (S)—N-(5-(2-(2-aminopyridin-3-yl)-5-(1H-pyrazol-1-yl)-3H-imidazo[4,5-b]pyridin-3-yl)-2,3-dihydro-1H-inden-1-yl)-2,4-difluoro-5-formylbenzamide]
 |  | 100 to 2000 |  | Nc1ncccc1-c1nc2ccc(-n3cccn3)nc2n1-c1ccc2c(c1)CC[C@@H]2n1cnc2c(F)c(O)c(C=O)cc2c1=O [Example 243, 3-[(1S)-5-[2-(2-aminopyridin-3-yl)-5-(pyrazol-1-yl)imidazo[4,5-b]pyridin-3-yl]-2,3-dihydro-1H-inden-1-yl]-8-fluoro-7-hydroxy-4-oxoquinazoline-6-carbaldehyde]
10 to 100 | 10 to 100 |  | 10 to 100 | Nc1ncccc1-c1nc2ccc(-n3cccn3)nc2n1-c1ccc2c(c1)CC[C@@H]2NC(=O)c1ccc(F)c(C=O)c1 [Example 191, (S)—N-(5-(2-(2-aminopyridin-3-yl)-5-(1H-pyrazol-1-yl)-3H-imidazo[4,5-b]pyridin-3-yl)-2,3-dihydro-1H-inden-1-yl)-4-fluoro-3-formylbenzamide]
